Test results as given in article PMC12881670, “Investigation into ligand selectivity and bias at the formyl peptide receptor family” (The Journal of Pharmacology and Experimental Therapeutics, 2025).
“Also recorded” adds a separate entry of the source. Like-named read-outs stand apart in the source and are kept apart here. Where a SMILES comes first, the peptide text is derived from it. Where no end group is shown, it is not given here. The star is where a group is joined. For = O=C*

How the values were obtained:
Type in all cases: cell-based
Mm_Fpr1 = target: T1, Mm_Fpr1 (Mus musculus, UniProt P33766); assay: Internalization of FLAG-tagged receptors by flow cytometry; set-up: Emax: dose or concentration left out as unconfirmed; conditions: for agonist-induced internalization (words): Mm_Fpr1, 30 min, relative to 1 μM WKYMVm
T1 construct: expressed in transfected cells
T1 sequence (P33766 1-364): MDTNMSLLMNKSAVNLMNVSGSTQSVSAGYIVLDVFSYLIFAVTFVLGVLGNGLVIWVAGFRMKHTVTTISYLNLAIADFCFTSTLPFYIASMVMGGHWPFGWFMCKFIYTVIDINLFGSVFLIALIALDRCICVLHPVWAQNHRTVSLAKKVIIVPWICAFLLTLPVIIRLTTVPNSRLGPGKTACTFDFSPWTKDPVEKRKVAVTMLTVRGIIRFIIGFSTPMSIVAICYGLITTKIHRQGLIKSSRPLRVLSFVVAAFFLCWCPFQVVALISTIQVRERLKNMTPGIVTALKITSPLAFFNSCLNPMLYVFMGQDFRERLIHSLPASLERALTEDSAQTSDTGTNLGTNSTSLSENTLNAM
Summary of the method: (§1)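 Surface FLAG-receptors labelled with Alexa Fluor-conjugated M1 anti-FLAG for 30 min at 37 °C, then exposed to ligand; surface antibody stripped with PBS/0.04% EDTA and internalised fluorescence read by flow cytometry (5000 events), constitutive endocytosis subtracted. Curves fitted by log(agonist) vs response, 3 parameters.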

Mm_Fpr2 = target: T2, Mm_Fpr2 (Mus musculus, UniProt O88536); assay: as above; set-up: Emax: dose or concentration left out as unconfirmed; conditions: for Emax (%), internalization, Mean: % of internalization to WKYMVm (1 mM in legend, 1 μM in text), Mm_Fpr2, 30 minutes; for Log EC50 (M), internalization, Mean: HEK293 stably expressing FLAG-Mm_Fpr2, ligand 30 minutes; for agonist-induced internalization (words): Mm_Fpr2, 30 min, relative to 1 μM WKYMVm
T2 construct: expressed in transfected cells
T2 sequence (O88536 1-351): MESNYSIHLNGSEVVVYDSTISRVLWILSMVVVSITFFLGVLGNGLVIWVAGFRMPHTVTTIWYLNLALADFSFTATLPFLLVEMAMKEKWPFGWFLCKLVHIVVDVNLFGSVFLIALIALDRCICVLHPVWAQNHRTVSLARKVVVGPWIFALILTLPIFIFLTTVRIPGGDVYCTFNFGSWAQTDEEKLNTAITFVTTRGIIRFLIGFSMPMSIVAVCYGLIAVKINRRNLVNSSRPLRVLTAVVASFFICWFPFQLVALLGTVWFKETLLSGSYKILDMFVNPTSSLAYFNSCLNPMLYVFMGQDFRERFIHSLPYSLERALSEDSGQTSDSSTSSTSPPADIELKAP
Summary of the method: as §1

Hs_FPR2 [1] = target: T3, Hs_FPR2 (Homo sapiens, UniProt P25090); assay: as above; set-up: Emax: dose or concentration left out as unconfirmed; conditions: for Emax (%), internalization, Mean: % of internalization to WKYMVm (1 mM in legend, 1 μM in text), Hs_FPR2, 30 minutes; for Emax (%), internalization, Mean / Log EC50 (M), internalization, Mean: ND denotes no internalization measured; for agonist-induced internalization (words): Hs_FPR2, 30 min, relative to 1 μM WKYMVm; for Log EC50 (M), internalization, Mean: HEK293 stably expressing FLAG-Hs_FPR2, ligand 30 minutes
T3 construct: expressed in transfected cells
T3 sequence (P25090 1-351): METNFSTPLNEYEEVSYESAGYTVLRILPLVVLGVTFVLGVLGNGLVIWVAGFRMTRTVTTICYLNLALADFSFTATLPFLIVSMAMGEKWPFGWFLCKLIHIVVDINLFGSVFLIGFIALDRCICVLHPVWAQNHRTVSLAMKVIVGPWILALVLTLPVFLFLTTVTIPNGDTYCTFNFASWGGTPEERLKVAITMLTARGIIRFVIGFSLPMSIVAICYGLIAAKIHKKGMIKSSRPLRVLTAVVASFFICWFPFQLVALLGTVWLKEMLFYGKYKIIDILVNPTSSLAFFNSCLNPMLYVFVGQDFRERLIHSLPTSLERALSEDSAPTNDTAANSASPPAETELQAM
Description: (§2) Internalization of FPRs was measured by flow cytometry.[30] Briefly, cells were incubated with Alexa Fluor 657 conjugated M1 antiflag antibody (Sigma-Aldrich Cat# F3040, RRID:AB_439712) for 30 minutes at 37 °C to label surface receptors. Cells were then incubated with the indicated concentration of ligand before washing in PBS/0.04% EDTA to remove any remaining surface antibody. Remaining fluorescence was then measured using flow cytometry on either a BD FACScalibur or Attune, recording 5000 gated events. […] As a control, some samples were left untreated, and “strip only” was measured as a readout of constitutive endocytosis, and this value was subtracted from the data.
(§3) All data were analyzed using GraphPad Prism using the nonlinear regression log(agonist) versus response (3 parameters) function for all assays, except binding, which was analyzed using the One site-FitlogIC50 function. Bias calculations were carried out following IUPHAR guidelines as described,[27]^,[37] and data were presented as the Δ Activity ratio (Log[EmaxB/EC50B])-(Log[EmaxA/EC50A]).

Hs_FPR1 = target: T4, Hs_FPR1 (Homo sapiens, UniProt P21462); assay: as above; set-up: Emax: dose or concentration left out as unconfirmed; conditions: for agonist-induced internalization (words): Hs_FPR1, 30 min, relative to 1 μM WKYMVm; for Emax: read-out: Emax (%), internalization, Mean
T4 construct: expressed in transfected cells
T4 sequence (P21462 1-350): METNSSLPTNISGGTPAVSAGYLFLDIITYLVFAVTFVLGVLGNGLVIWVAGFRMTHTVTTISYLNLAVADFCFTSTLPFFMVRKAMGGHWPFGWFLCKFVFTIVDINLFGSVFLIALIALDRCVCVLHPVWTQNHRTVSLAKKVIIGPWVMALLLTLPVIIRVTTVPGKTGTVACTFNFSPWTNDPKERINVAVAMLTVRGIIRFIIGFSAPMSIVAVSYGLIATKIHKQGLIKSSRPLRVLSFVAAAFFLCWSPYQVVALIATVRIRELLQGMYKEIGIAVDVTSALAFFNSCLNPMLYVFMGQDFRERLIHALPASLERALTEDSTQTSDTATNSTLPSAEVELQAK
Description: as §2, §3

Hs_FPR2 [2] = target: T3, Hs_FPR2; assay: BRET receptor-RLuc8 interaction with Venus-mGsi; conditions: for Log EC50 (M): log of EC50, HEK293 transient, 10 min; for Log EC50 (M) / Emax (%): mGsi BRET, mean, ND = no interaction detected; for Emax (%): % of response to 1 μM WKYMVm
Summary of the method: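 Agonist-induced BRET between C-terminal RLuc8-fused receptor and Venus-mGsi or YFP-Arrestin 3 was recorded after 10 min compound treatment at 37 °C, using coelenterazine h at 5 μM final. Acceptor/donor ratios minus untreated background gave N-BRET, fitted with a 3-parameter log(agonist)–response model.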

[3] = read-out: Log EC50 (M), internalization, Mean (converted)

## Cc1cccc(-c2oc(C)nc2C(=O)Nc2cnn(Cc3nc(C(C)(F)F)co3)n2)c1 [ACT-389949]
Mm_Fpr1
  agonist-induced internalization (words): only at 10 μM
Mm_Fpr2
  Emax (%), internalization, Mean: 118.5%
  Log EC50 (M), internalization, Mean: −6.539 M
  agonist-induced internalization (words): full agonist
Mm_Fpr2; equipotent to WKYMVm at Hs_FPR2
  fold less potency at Mm_Fpr2, internalization: 28 fold
Hs_FPR2 [1]
  Emax (%), internalization, Mean: 95.31%
  agonist-induced internalization (words): full agonist
  Log EC50 (M), internalization, Mean: −7.975 M
Hs_FPR1
  agonist-induced internalization (words): only at 10 μM
Hs_FPR2 [2]
  Log EC50 (M): −7.80 M
  Emax (%): 69.25%

## COc1cc(F)c([C@@H]2CNC(=O)[C@H]2NC(=O)Nc2ccccc2)c(F)c1 [BMS-986235]
Mm_Fpr1
  agonist-induced internalization (words): failed to show appreciable internalization; also recorded: unable to induce any measurable internalization
Mm_Fpr2
  Emax: 88%
  times more potent at Mm_Fpr2 than Hs_FPR2, internalization: 9 times
  agonist-induced internalization (words): robust internalization
Mm_Fpr2; [3]
  EC50: 1.03e-07 M
Hs_FPR2 [1]
  Emax: 112%
  agonist-induced internalization (words): robust internalization
Hs_FPR2 [1]; [3]
  EC50: 9.1e-07 M
Hs_FPR1
  agonist-induced internalization (words): failed to show appreciable internalization; also recorded: unable to induce any measurable internalization
Hs_FPR2 [2]
  EC50: 0.0759 µM
  Emax: 64.4%

## CCCCOc1ccc(C(=O)NN2C(=O)c3ccccc3NC2c2ccc(OC)cc2)cc1 (stereo not shown) [QuinC1]
Mm_Fpr1; % of internalization to WKYMVm (1 mM in legend, 1 μM in text), Mm_Fpr1, 30 minutes, ND denotes no internalization measured
  Emax (%), internalization, Mean: 66.27%
Mm_Fpr1; Log EC50, HEK293 stably expressing FLAG-Mm_Fpr1, ligand 30 minutes, ND denotes no internalization measured
  Log EC50 (M), internalization, Mean: −6.120 M
Mm_Fpr1
  agonist-induced internalization (words): partial agonists
Mm_Fpr2
  Emax (%), internalization, Mean: 41.84%
  Log EC50 (M), internalization, Mean: −7.106 M
  agonist-induced internalization (words): partial agonists
Hs_FPR2 [1]
  Emax (%), internalization, Mean: 81.29%
  agonist-induced internalization (words): partial agonists
  Log EC50 (M), internalization, Mean: −5.809 M
Hs_FPR1
  agonist-induced internalization (words): partial agonists
Hs_FPR2 [2]
  Log EC50 (M): −6.06 M
  Emax (%): 34.75%

## CSCC[C@H](NC(=O)[C@H](Cc1ccc(O)cc1)NC(=O)[C@H](CCCCN)NC(=O)[C@@H](N)Cc1c[nH]c2ccccc12)C(=O)N[C@H](C(=O)N[C@H](CCSC)C(N)=O)C(C)C [WKYMVm]
Mm_Fpr1
  Emax: 108%
Mm_Fpr2
  Emax: 102%
Hs_FPR2 [1]
  Emax: 97.5%
Hs_FPR1
  Emax: 106%
Hs_FPR2 [2]
  Emax: 100%

## CSCC[C@H](NC=O)C(=O)N[C@@H](CC(C)C)C(=O)N[C@@H](Cc1ccccc1)C(=O)N[C@@H](CCCCN)C(=O)O [fMLFK, fMet-Leu-Phe-Lys] (For-MLFK-OH)
Mm_Fpr1
  EC50: 6.11 µM
  Emax: 179%
Mm_Fpr2
  EC50: 1.16e-05 M
  Emax: 81.6%
Hs_FPR2 [1]
  EC50: 3.34e-05 M
  Emax: 99.9%
Hs_FPR1
  EC50: 0.0162 µM
  Emax: 79.3%
Hs_FPR2 [2]
  EC50: 26.9 µM
  Emax: 80.7%

## LESIFRSLLFRVM [MMK1]
Mm_Fpr1
  Emax: 11.6%
  agonist-induced internalization (words): failed to show appreciable internalization
Mm_Fpr1; listed as MMK-1
  agonist-induced internalization (words): unable to induce internalization
Mm_Fpr2
  Emax: 8.68%
  agonist-induced internalization (words): unable to induce internalization
Hs_FPR2 [1]
  Emax: 62.9%
  agonist-induced internalization (words): partial agonism
  Log EC50 (M), internalization, Mean: −7.216 M
Hs_FPR1
  agonist-induced internalization (words): failed to show appreciable internalization
Hs_FPR1; listed as MMK-1
  agonist-induced internalization (words): unable to induce internalization
Hs_FPR2 [2]
  Emax: 38.7%
  Log EC50 (M): −7.17 M
